Reference: patent US20130035246A1, “Method and Apparatus for Determining a Mammal's Exposure to Chemical or Biological Agents” ([…], INC., priority 2011, published 2013)

System: peripheral blood mononuclear cell (PBMC) cultures
Test: Cytokine expression in PBMC cultures challenged with mold cells or PHA (multiplex immunoassay)
Type: cell-based, human
Details: PBMC from healthy volunteers, 18 hours
Excerpt: PBMC were isolated from blood collected from patients and control subjects as previously described [Gillis B, Gavin I M, Arbieva Z, King S T, Jayaraman S, Prabhakar B S. Identification of human cell responses to benzene and benzene metabolites. Genomics 2007; 90: 324-333 and Gavin I M, Gillis B, Arbieva Z, Prabhakar B S. Identification of human cell responses to hexavalent chromium. Environ Mol Mutagen 2007; 48: 650-657.] and incorporated herein by reference. One milliliter of blood plasma was also collected from the blood samples and stored frozen at −80° C. […]
After overnight culture of the PMBC, one milliliter of supernatant was removed from each plate, centrifuged at 16,000 g at +4° C. for 10 minutes, and clear cell-free culture media were collected. Cytokine concentrations in culture supernatants, as well as in plasma, were measured by multiplex immunoassay based on Luminex xMAP™ bead array technology using a Bio-Plex 200 fluorescence bead reader (BioRad Laboratories, Hercules, Calif.). […]
Statistical analyses were performed with Microsoft Excel and Analyse-it software (Analyse-it Software Ltd., Leeds, UK). An increase of cytokine expression in immunologic challenges was evaluated using a Student's t-test. […] The statistical significance of the difference in responses to various immunologic challenges was evaluated by using a one-way ANOVA test with Tukey type I error correction. […]

phytohemagglutinin [PHA]
IL-2, IL-4 and IL-5 in culture supernatants: detected
